{
  "source": "patent US20050074404A1",
  "about": "“Methods for avoiding renal injury” (Pfizer Inc., priority 2002, published 2005)",
  "key": {"[1]": {"assay": "Urinary retinol concentrations in rats (HPLC)", "format": "in vivo, rat", "conditions": "100 mg/kg intramuscular once per day, 24 h urine", "method": "A. Dosing of Mammals, Collection and Storage of Urine\n(§1) Male Sprague Dawley rats (105-125 grams each) were purchased from Charles River (Kingston, N.Y.). […] Rats were dosed intramuscular, using a 25 gauge tuberculin syringe. The animals were housed individually prior to urine collection. For the urine collection, rats were transferred to individual metabolism cages. At all times throughout the study, the animals had free access to food and water. […] Rats were dosed once per day for the duration of 1, 4 or 9 days. Urine was collected after one dose, four doses and nine doses. Each collection period was for 24 hours. Urine was collected, chilled to approximately 4° C. and protected from light. Total urine volume was measured at the end of each collection period prior to retinol analysis. The urine was stored at −80° C. and in darkness to protect the components of the urine from oxidation and degration until analysis.\nB. Measurement of Retinol in Urine Samples\nThe acetonitrile, methanol, isopropanol and tetrahydrofuran (THF) were purchased from J. T. Baker (Phillipsburg, N.J.). The acetonitrile and methanol were HPLC grade and the isopropanol and THF were ACS reagent grade. The water in the mobile phase came from a Nanopure® water filtration system (Barnstead, Dubuque, Ind.). Retinol and retinol acetate standards were purchased from ICN Biomedicals (Costa Mesa, Calif.). The retinol palmitate was purchased from Sigma Chemicals (St. Louis, Mo.).\nThe HPLC instrumentation consisted of a Hewlett-Packard Model 1090 Series II system (Hewlett Packard Company, Palo Alto, Calif.) equipped with a tertiary gradient pump, diode array detector, and a cooled auto-sampler. Hewlett-Packard Chemstation™ software (Rev. 5.02) was used for data collection and analysis. Absorbance data for all retinols was collected at a wavelength of 340 nm. All separations were carried out on a 15 cm×2.0 mm, 5μ particle size, Prodigy ODS (2) HPLC column (Phenomenex, Torrance, Calif.). The column was equipped with an inlet filter, 0.5μ×1.5 mm (Phenomenex, Torrance, Calif.). […]"}, "[2]": {"assay": "Urinary albumin concentrations in rats", "format": "in vivo, rat", "conditions": "100 mg/kg once per day", "method": "as §1"}, "rat kidney [3]": {"system": "rat kidney", "assay": "Histopathology of rat kidney (H & E)", "format": "in vivo", "text": "(§2) The physiological events that characterize the onset of phospholipidosis are well known to those with skill in the art (see, for example, Girton (2002)). […] Following endocytosis, the aminoglycoside accumulates in lysosomes. The lysosomes eventually swell with excess lipid debris. When visualized using electron-microscopy, the accumulated lipid appear as phospholipid inclusions, or myelin figures, within the lysosomes (Kosek et al. (1974)) (see FIG. 1 and FIG. 2 below). The phospholipid inclusions may also be visualized by staining with Sudan black as described, for example, in Presnell and Schreibman (1997) (see FIG. 3 below). The damage to renal tissue from phospholipidosis may be visualized by histological examination using hematoxylin and eosin staining (H & E) of the renal tissue damaged through phospholipidosis. The damage that is evident includes tubular degeneration, vacuolation and eventually, in advanced stages of damage, necrosis of the renal proximal tubule (see FIG. 5 and FIG. 6 below).\nas §1"}, "rat kidney [4]": {"system": "rat kidney", "assay": "Sudan black staining of rat kidney for phospholipids", "format": "in vivo", "text": "as §2, §1"}, "rat proximal tubule": {"system": "rat proximal tubule", "assay": "Electron microscopy of rat proximal tubule", "format": "in vivo", "conditions": "four days of treatment with 100 mg/kg", "text": "as §2\nMale Sprague Dawley rats (105-125 grams each) were purchased from Charles River (Kingston, N.Y.). […] Rats were dosed intramuscular, using a 25 gauge tuberculin syringe. The animals were housed individually prior to urine collection. […] Total urine volume was measured at the end of each collection period prior to retinol analysis. […]"}},
  "data": [
    {"substance": "Gentamicin sulfate", "values": [
      {"measurement": "Urinary retinol concentration", "setting": "[1]; Day 1, mean of eight rats", "value": 123.57, "unit": "nM"},
      {"measurement": "Urinary retinol concentration", "setting": "[1]; Day 4, mean of eight rats", "value": 131.08, "unit": "nM"},
      {"measurement": "Urinary retinol concentration", "setting": "[1]; Day 9, mean of eight rats", "value": 2457.13, "unit": "nM"},
      {"measurement": "Urinary albumin concentration", "setting": "[2]; Day 1, mean of eight rats", "value": 163, "unit": "µg/mL"},
      {"measurement": "Urinary albumin concentration", "setting": "[2]; Day 4, mean of eight rats", "value": 354, "unit": "µg/mL"},
      {"measurement": "Urinary albumin concentration", "setting": "[2]; Day 9, mean of eight rats", "value": 1184, "unit": "µg/mL"},
      {"measurement": "Histopathologic effects, onset", "setting": "rat kidney [3]; 100 mg/kg once per day", "value": "do not begin to appear until day four"},
      {"measurement": "Chronic Progressive Nephropathy, slight, number of animals", "setting": "rat kidney [3]; 100 mg/kg, Day 1, of 8 rats", "value": 1},
      {"measurement": "Hyaline droplets, slight, number of animals", "setting": "rat kidney [3]; 100 mg/kg, Day 1, of 8 rats", "value": 3},
      {"measurement": "No significant findings, number of animals", "setting": "rat kidney [3]; 100 mg/kg, Day 1, of 8 rats", "value": 4},
      {"measurement": "Chronic Progressive Nephropathy, slight, number of animals", "setting": "rat kidney [3]; 100 mg/kg, Day 4, of 8 rats", "value": 2},
      {"measurement": "Hyaline droplets, mild, number of animals", "setting": "rat kidney [3]; 100 mg/kg, Day 4, of 8 rats", "value": 1},
      {"measurement": "Hyaline droplets, slight, number of animals", "setting": "rat kidney [3]; 100 mg/kg, Day 4, of 8 rats", "value": 3},
      {"measurement": "Tubular degeneration (1), mild, number of animals", "setting": "rat kidney [3]; 100 mg/kg, Day 4, of 8 rats", "value": 2},
      {"measurement": "Tubular degeneration (1), slight, number of animals", "setting": "rat kidney [3]; 100 mg/kg, Day 4, of 8 rats", "value": 6},
      {"measurement": "Tubular vacuolation, mild, number of animals", "setting": "rat kidney [3]; 100 mg/kg, Day 4, of 8 rats", "value": 3},
      {"measurement": "Tubular vacuolation, slight, number of animals", "setting": "rat kidney [3]; 100 mg/kg, Day 4, of 8 rats", "value": 3},
      {"measurement": "Hyaline droplets, mild, number of animals", "setting": "rat kidney [3]; 100 mg/kg, Day 9, of 8 rats", "value": 4},
      {"measurement": "Hyaline droplets, slight, number of animals", "setting": "rat kidney [3]; 100 mg/kg, Day 9, of 8 rats", "value": 1},
      {"measurement": "Tubular degeneration/necrosis/regeneration (3), marked, number of animals", "setting": "rat kidney [3]; 100 mg/kg, Day 9, of 8 rats", "value": 6},
      {"measurement": "Tubular degeneration/necrosis/regeneration (3), severe, number of animals", "setting": "rat kidney [3]; 100 mg/kg, Day 9, of 8 rats", "value": 2},
      {"measurement": "Tubular vacuolation, mild, number of animals", "setting": "rat kidney [3]; 100 mg/kg, Day 9, of 8 rats", "value": 2},
      {"measurement": "Tubular vacuolation, moderate, number of animals", "setting": "rat kidney [3]; 100 mg/kg, Day 9, of 8 rats", "value": 4},
      {"measurement": "Tubular vacuolation, slight, number of animals", "setting": "rat kidney [3]; 100 mg/kg, Day 9, of 8 rats", "value": 1},
      {"measurement": "Rat kidney tissue histology (FIG. 5)", "setting": "rat kidney [3]; four days of treatment with 100 mg/kg", "value": "early lesions formation"},
      {"measurement": "Rat kidney tissue histology (FIG. 6)", "setting": "rat kidney [3]; nine days of treatment with 100 mg/kg", "value": "extensive kidney tissue damage"},
      {"measurement": "Significant Sudan black staining, onset", "setting": "rat kidney [4]; 100 mg/kg once per day", "value": "not observed until day four"},
      {"measurement": "Sudan black staining negative, number of animals", "setting": "rat kidney [4]; 100 mg/kg, Day 1, of 8 rats", "value": 3},
      {"measurement": "Sudan black staining slight, number of animals", "setting": "rat kidney [4]; 100 mg/kg, Day 1, of 8 rats", "value": 5},
      {"measurement": "Sudan black staining mild, number of animals", "setting": "rat kidney [4]; 100 mg/kg, Day 4, of 8 rats", "value": 1},
      {"measurement": "Sudan black staining mild-moderate, number of animals", "setting": "rat kidney [4]; 100 mg/kg, Day 4, of 8 rats", "value": 2},
      {"measurement": "Sudan black staining moderate, number of animals", "setting": "rat kidney [4]; 100 mg/kg, Day 4, of 8 rats", "value": 2},
      {"measurement": "Sudan black staining moderate-marked, number of animals", "setting": "rat kidney [4]; 100 mg/kg, Day 4, of 8 rats", "value": 3},
      {"measurement": "Sudan black staining marked, number of animals", "setting": "rat kidney [4]; 100 mg/kg, Day 9, of 8 rats", "value": 1},
      {"measurement": "Sudan black staining mild, number of animals", "setting": "rat kidney [4]; 100 mg/kg, Day 9, of 8 rats", "value": 1},
      {"measurement": "Sudan black staining mild-moderate, number of animals", "setting": "rat kidney [4]; 100 mg/kg, Day 9, of 8 rats", "value": 1},
      {"measurement": "Sudan black staining moderate, number of animals", "setting": "rat kidney [4]; 100 mg/kg, Day 9, of 8 rats", "value": 2},
      {"measurement": "Sudan black staining moderate-marked, number of animals", "setting": "rat kidney [4]; 100 mg/kg, Day 9, of 8 rats", "value": 3},
      {"measurement": "Sudan black staining", "setting": "rat kidney [4]; after a single dose (100 mg/kg)", "value": "slight staining"},
      {"measurement": "Electron-micrograph finding in rat proximal tubule (FIG. 1)", "setting": "rat proximal tubule", "value": "phospholipid inclusions or myelin figures"}
    ]}
  ]
}
